In patent US10287267B2, “Isoquinolin-3-yl carboxamides and preparation and use thereof” (Samumed, LLC, priority 2016, dated 2019):
Read-outs that look alike come from different tables or passages of the source.

How the values were obtained:
[1] = test system: α-smooth muscle actin (αSMA) positive LL29 cells; assay: Inhibition of fibrotic process: αSMA in TGF-β1 treated primary human fibroblasts from IPF patients; assay type: cell-based; conditions: Homo sapiens, Fibroblast; for EC50: 96 h, Table 8, LL29 fibroblasts from IPF patients, TGF-β1 20 ng/mL, 4 days, dose-response 10 μM to 0.94 nM; for inhibition at 10 µM: read-out: percent value in parentheses beside EC50 >10 μM;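 on all read-outs here: controls were TGF-β1 stimulated wells with DMSO vehicle (positive) and cells given DMSO alone (negative), cultured in F12 medium with 1% fetal bovine serum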
recombinant GSK3β kinase = recombinant GSK3β kinase (Homo sapiens (Human), UniProt P49841); assay: GSK3β kinase assay (Ser/Thr 09 peptide Z-lyte FRET); assay type: biochemical; conditions: 46 μM ATP, 1 h room temperature;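 further: kinase activity read as coumarin to fluorescein emission ratio, 11-point threefold dilutions from 10 µM to 0.0003 µM in duplicate, unphosphorylated and phosphorylated peptide as 0% and 100% controls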
[2] = test system: Wnt pathway (Sp5-Luc reporter, TCF/LEF binding sites) in SW480 colon carcinoma cells; assay: Screening assay for Wnt activity: Sp5-Luc reporter gene assay; assay type: cell-based, human; conditions: Homo sapiens; for EC50: Sp5-Luc reporter, SW480 cells, 36 to 48 hours;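 on all read-outs here: firefly luciferase luminescence read in stably transduced SW480 cells carrying the Sp5 promoter reporter with eight TCF/LEF sites, compounds given in 0.1% DMSO final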
Experimental: The screening assay for Wnt activity is described as follows.
Following incubation, 15 μl of BriteLite Plus luminescence reagent (Perkin Elmer) was added to each well of the 384-well assay plates. The plates were placed on an orbital shaker for 2 min and then luminescence was quantified using the Envision (Perkin Elmer) plate reader.

[3] = test system: SW480 colon carcinoma cells; assay: Cell viability assay (CellTiter-Glo); assay type: cell-based, human; conditions: Homo sapiens; for EC50: 96 h, SW480 cells, CellTiter-Glo, four days incubation; for inhibition at 10 µM: SW480, read-out: percent inhibition at 10 μM
IL-6 = IL-6 inhibition in LPS-stimulated human peripheral blood mononuclear cells (HTRF); assay type: cell-based; conditions: Homo sapiens, PBMC; for EC50: Table 9, huPBMCs, LPS 50 ng/mL, 22 hours, dose-response starting from 10 μM; for inhibition at 10 µM: read-out: percent value in parentheses beside EC50 >10 μM;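 on all read-outs here: IL-6 detected by HTRF with an XL665- and Cryptate-labelled anti-IL-6 antibody pair, samples run in duplicate, EC50 obtained from a four-parameter Levenberg-Marquardt curve fit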
Experimental: After 22 hour incubation, a mixture of anti-IL6 XL665 and anti-IL-6 Cryptate diluted in reconstitution buffer (Catalog #62IL6PEC, Cisbio Inc., Bedford, Mass.) was added to each well. […] All samples were processed in duplicate. […] EC50 was determined using software generated by Dotmatics Limited (Windhill Bishops Stortford Herts, UK) using the Levenberg-Marquardt 4 parameter fitting procedure with finite different gradients.

[4] = test system: secreted β-amyloid 40 (Aβ40) peptide; assay: Secreted β-amyloid 40 (Aβ40) peptide in APP overexpressing SH-SY5Y-APP cells; assay type: cell-based; conditions: Homo sapiens, overnight (16-18 hours)
Experimental: Representative compounds were screened using the cell-based assay procedure for secreted β-amyloid 40 (Aβ40) peptide in an APP overexpressing cell line described below.
SH-SY5Y cells were infected with lentivirus to overexpress amyloid (A4) beta precursor protein (APP), hereafter referred to as the SH-SY5Y-APP cells.
SH-SY5Y cells were seeded onto 6-well plates at
The cell assay procedure start 18 h prior to treatment, as SH-SY5Y-APP cells were seeded onto 96-well plates at
At this time, designated wells were seeded with SH-SY5Y cells that were seeded and treated with puromycin at
Cells were exposed overnight (16-18 hours) in a 37° C. incubator before supernatant was harvested. […] The original plates with seeded cells were tested for cytotoxicity by measure of adenosine triphosphate (ATP) release by adding CellTiter-Glo® diluted 1:4 in distilled water (G7573, Promega) and transferring lysed cells to a completely black 96-well plate to be read with the Cytation3. Plates containing supernatant were spun down at 1200 g for 10 minutes to remove any cellular debris. Supernatant was then diluted 1:2 with a diluent from V-PLEX Aβ40 Peptide (6E10) Kit and directly tested for secreted Aβ40 peptide (K150SKE, Meso Scale Discovery).

[5] = target: recombinant DYRK1A kinase (Homo sapiens (Human), UniProt Q13627); assay: DYRK1A kinase assay (Ser/Thr 18 peptide Z-lyte FRET); assay type: biochemical; conditions: 30 μM ATP, 1 h room temperature;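 further: Read-out is the coumarin to fluorescein emission ratio, referenced to unphosphorylated (0%) and phosphorylated (100%) Ser/Thr 18 peptide controls, values from dose-response curves by non-linear regression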
[6] = test system: Tau phosphorylation at Ser396 (pSer396); assay: Tau phosphorylation assay (pSer396 ELISA / western blot) in SH-SY5Y cells; assay type: cell-based, human; conditions: Homo sapiens, read-out: pSer396 Tau EC50;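 further: EC50 for reduction of Tau pSer396 in lysed cells, measured by colorimetric ELISA or chemiluminescent western blot, both using the same pSer396 antibody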
[7] = SH-SY5Y cells, overnight (16-18 h) exposure

Sequence of recombinant GSK3β kinase (P49841 whole entry): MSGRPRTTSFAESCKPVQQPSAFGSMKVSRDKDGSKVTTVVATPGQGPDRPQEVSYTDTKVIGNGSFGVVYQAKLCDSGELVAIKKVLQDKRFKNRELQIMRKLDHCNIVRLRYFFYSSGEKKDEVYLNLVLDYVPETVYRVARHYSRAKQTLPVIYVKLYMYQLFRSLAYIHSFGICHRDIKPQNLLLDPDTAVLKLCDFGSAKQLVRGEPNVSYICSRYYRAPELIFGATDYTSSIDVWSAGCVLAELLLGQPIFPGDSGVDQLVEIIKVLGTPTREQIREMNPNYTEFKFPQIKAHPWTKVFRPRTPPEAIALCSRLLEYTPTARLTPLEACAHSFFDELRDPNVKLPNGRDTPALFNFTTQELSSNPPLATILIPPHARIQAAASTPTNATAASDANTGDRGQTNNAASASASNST

SMILES | EC50 [1] | EC50 (recombinant GSK3β kinase) | EC50 [2] | EC50 [3] | EC50 (IL-6) | IC50 [4] | EC50 [5] | EC50 [6, 7] | EC50 ([6]; SH-SY5Y) | inhibition at 10 µM [1] | inhibition at 10 µM [3] | inhibition at 10 µM (IL-6) | inhibition at 10 µM ([2]; SW480, read-out: percent inhibition at 10 μM)
Cn1cc(-c2ccc3cnc(NC(=O)C4CCN(CC(C)(C)F)CC4)cc3c2)cn1 [Compound 85, 1-(2-Fluoro-2-methylpropyl)-N-(6-(1-methyl-1H-pyrazol-4-yl)isoquinolin-3-yl)piperidine-4-carboxamide] | 97 nM | 29 nM | 1200 nM | 1640 nM | 1150 nM | 1300 nM | 1.4 nM | 392 nM |  |  |  |  | 
Cn1cc(-c2ccc3cnc(NC(=O)C4CCN(CCC(F)(F)F)CC4)cc3c2)nn1 [Compound 271, N-(6-(1-methyl-1H-1,2,3-triazol-4-yl)isoquinolin-3-yl)-1-(3,3,3-trifluoropropyl)piperidine-4-carboxamide] | 64 nM | 3 nM | 1720 nM | 2960 nM | 3080 nM | 4600 nM | 2.1 nM | 124 nM |  |  |  |  | 
Cn1cncc1-c1ccc2cnc(NC(=O)C3C(C)(C)C3(C)C)cc2c1 [Compound 269, 2,2,3,3-Tetramethyl-N-[6-(3-methylimidazol-4-yl)-3-isoquinolyl]cyclopropanecarboxamide] | 396 nM | 1020 nM | 3620 nM | 2330 nM | 3390 nM | > 10000 nM | 5 nM |  | 4300 nM |  |  |  | 
Cn1cc(-c2ccc3cnc(NC(=O)C4CC4)cc3c2)cn1 [Compound 1, N-(6-(1-Methyl-1H-pyrazol-4-yl)isoquinolin-3-yl)cyclopropanecarboxamide] | 135 nM | 8 nM | 650 nM | 130 nM | 338 nM | 3960 nM | 4 nM | 149 nM |  |  |  |  | 
Cn1nncc1-c1ccc2cnc(NC(=O)C3CCN(CCC(F)(F)F)CC3)cc2c1 [Compound 248, N-(6-(1-Methyl-1H-1,2,3-triazol-5-yl)isoquinolin-3-yl)-1-(3,3,3-trifluoropropyl)piperidine-4-carboxamide] | 7920 nM | 266 nM | > 10000 nM | > 10000 nM | 9730 nM | > 10000 nM | 37.4 nM | 905 nM |  |  |  |  | 
Cn1cc(-c2ccc3cnc(NC(=O)CN4CCCCC4)cc3c2)cn1 [Compound 115, N-(6-(1-Methyl-1H-pyrazol-4-yl)isoquinolin-3-yl)-2-(piperidin-1-yl) acetamide] | 605 nM | 30 nM | 2400 nM | 3500 nM | 1910 nM | 956 nM | 3.4 nM | 311 nM |  |  |  |  | 
Cn1cc(-c2ccc3cnc(NC(=O)C4CCN(CC(F)F)CC4)cc3c2)cn1 [Compound 84, 1-(2,2-Difluoroethyl)-N-(6-(1-methyl-1H-pyrazol-4-yl)isoquinolin-3-yl) piperidine-4-carboxamide] | 148 nM | 20 nM | 1900 nM | 1950 nM | 2460 nM | 4400 nM | 1.3 nM | 454 nM |  |  |  |  | 
Cn1cc(-c2ccc3cnc(NC(=O)[C@@H]4CCCNC4)cc3c2)cn1 [Compound 111, (R)—N-(6-(1-Methyl-1H-pyrazol-4-yl)isoquinolin-3-yl)piperidine-3-carboxamide] | 280 nM | 40 nM | 743 nM | 526 nM |  | 272 nM | 3.9 nM | 597 nM |  |  |  |  | 
CO[C@H]1CC[C@H](C(=O)Nc2cc3cc(-c4cncn4C)ccc3cn2)CC1 [Compound 528, trans-4-Methoxy-N-(6-(1-methyl-1H-imidazol-5-yl)isoquinolin-3-yl) cyclohexane-1-carboxamide] | 103 nM | 96 nM | 1150 nM | 1420 nM | 1780 nM |  | 0.8 nM | 323 nM |  |  |  |  | 
Cn1cc(-c2ccc3cnc(NC(=O)C4CCN(CC5(C)COC5)CC4)cc3c2)nn1 [Compound 472, N-(6-(1-Methyl-1H-1,2,3-triazol-4-yl)isoquinolin-3-yl)-1-((3-methyloxetan-3-yl)methyl)piperidine-4-carboxamide] | 243 nM | 8 nM | 382 nM | 5090 nM | 5410 nM |  | 3.2 nM | 200 nM |  |  |  |  | 
CC1CCN(CC(=O)Nc2cc3cc(-c4cnn(C)c4)ccc3cn2)CC1 [Compound 293, N-(6-(1-Methyl-1H-pyrazol-4-yl)isoquinolin-3-yl)-2-(4-methylpiperidin-1-yl)acetamide] | 7770 nM | 59 nM | 3220 nM | 2860 nM | 1170 nM |  | 5 nM | 668 nM |  |  |  |  | 
[2H]C([2H])([2H])N1CCN(CC(=O)Nc2cc3cc(-c4cnn(C)c4)ccc3cn2)CC1 [Compound 965, N-(6-(1-Methyl-1H-pyrazol-4-yl)isoquinolin-3-yl)-2-(4-(methyl-d3)piperazin-1-yl)acetamide] | 1370 nM | 79 nM | 3180 nM | 8630 nM | 3260 nM |  | 10.6 nM | 1000 nM |  |  |  |  | 
CC(C)CN1CCC[C@@H](C(=O)Nc2cc3cc(-c4cnn5c4CN(CCF)CC5)ccc3cn2)C1 [Compound 1002, (R)—N-(6-(5-(2-Fluoroethyl)-4,5,6,7-tetrahydropyrazolo[1,5-a]pyrazin-3-yl)isoquinolin-3-yl)-1-isobutylpiperidine-3-carboxamide] | > 10000 nM | 425 nM | 1920 nM | > 10000 nM | > 10000 nM |  | 28.5 nM | 1900 nM |  | 27.5% | 37.6% | 5.9% | 
COC(=O)CN1CCC(C(=O)Nc2cc3cc(-c4cnn(C)c4)ccc3cn2)CC1 [Compound 334, Methyl 2-(4-((6-(1-methyl-1H-pyrazol-4-yl)isoquinolin-3-yl)carbamoyl)piperidin-1-yl)acetate] | 63 nM | 47 nM | 787 nM | 7370 nM | 263 nM |  | 1.6 nM | 820 nM |  |  |  |  | 
CN1CC2(CC(C(=O)Nc3cc4cc(-c5cncs5)ccc4cn3)C2)C1 [Compound 700, 2-Methyl-N-(6-(thiazol-5-yl)isoquinolin-3-yl)-2-azaspiro[3.3]heptane-6-carboxamide] | 275 nM | 49 nM | 771 nM | 623 nM | 380 nM |  | 2.2 nM | 513 nM |  |  |  |  | 
C[C@@H](C(=O)Nc1cc2cc(-c3cnn(C)c3)ccc2cn1)N1CCCC1 [Compound 317, (S)—N-(6-(1-Methyl-1H-pyrazol-4-yl)isoquinolin-3-yl)-2-(pyrrolidin-1-yl) propanamide] | 174 nM | 30 nM | 1270 nM | 6340 nM | 1900 nM |  | 37 nM | 200 nM |  |  |  |  | 
C[C@@H](C(=O)Nc1cc2cc(-c3cnn(C)c3)ccc2cn1)N1CCOCC1 [Compound 348, (S)—N-(6-(1-Methyl-1H-pyrazol-4-yl)isoquinolin-3-yl)-2-morpholinopropanamide] | 1460 nM | 221 nM | > 10000 nM | > 10000 nM | > 10000 nM |  | 77.5 nM | 2000 nM |  |  | 22.4% | 19% | 36.9%
CO[C@H]1CC[C@H](C(=O)Nc2cc3cc(-c4cnn(C)c4CN4CCCCC4)ccc3cn2)CC1 [Compound 795, trans-4-Methoxy-N-(6-(1-methyl-5-(piperidin-1-ylmethyl)-1H-pyrazol-4-yl)isoquinolin-3-yl)cyclohexane-1-carboxamide] | 227 nM | 33 nM | 471 nM | 806 nM | 1220 nM |  | 2.4 nM | 401 nM |  |  |  |  | 
Cn1cncc1-c1ccc2cnc(NC(=O)CN3CCCCC3)cc2c1 [Compound 275, N-[6-(3-methylimidazol-4-yl)-3-isoquinolyl]-2-(1-piperidyl) acetamide] | 431 nM | 115 nM | 1920 nM | 1280 nM | 1140 nM |  | 4.7 nM | 232 nM |  |  |  |  | 
CN1CCN(CC(=O)Nc2cc3cc(-c4cnn(C)c4)ccc3cn2)CC1 [Compound 118, N-(6-(1-Methyl-1H-pyrazol-4-yl)isoquinolin-3-yl)-2-(4-methylpiperazin-1-yl)acetamide] | 821 nM | 79 nM | 3600 nM | 5940 nM | 3610 nM |  | 9.6 nM | 1200 nM |  |  |  |  | 
Cn1cc(-c2ccc3cnc(NC(=O)[C@@H]4CCCO4)cc3c2)cn1 [Compound 71, (S)—N-(6-(1-Methyl-1H-pyrazol-4-yl)isoquinolin-3-yl)tetrahydrofuran-2-carboxamide] | > 10000 nM | 62 nM | 3900 nM | 8100 nM | 6730 nM |  | 13.6 nM | 1510 nM |  | 33.4% |  |  | 
